Experimental data from patent US12551536B2, “Semaglutide in medical therapy” (Novo Nordisk A/S, priority 2017, dated 2026).

Experiments:
Assay type in all cases: in vivo, human
[1] = 52-week clinical trial of once-daily semaglutide in obese subjects without diabetes mellitus: change in body weight; conditions: for Change in body weight (%) from baseline to week 52, Change (%) Estimate / Change in body weight, Treatment difference (%-points) vs. Lira 3.0 mg / Change in body weight, Treatment difference (%-points) vs. Placebo Pool: ANCOVA, J2R-MI; for Change in body weight (%) from baseline at week 52, Model prediction (Estimate) %: Emax dose-response modelling; for Change in body weight (%) from baseline to week 52, Subjects in-trial, Mean / Change in body weight (%) from baseline to week 52, Subjects on-treatment, Mean: observed data
Protocol: (§1) This trial was designed as a 52-week, randomised, double-blind, placebo-controlled, sixteen-armed, parallel group, multi-centre, multinational trial comparing once-daily subcutaneous administration of semaglutide in five different doses (ranging from 0.05 mg/day to 0.4 mg/day) with placebo in obese subjects without diabetes mellitus. […] The trial was double-blinded between active and placebo treatment. To ensure a sufficiently large sample of men, no more than 70% of the trial population was allowed to be women and the randomisation was stratified according to sex. Subjects were randomised in a balanced manner (6:1 active:placebo).
(§2) The primary endpoint was relative change from baseline in body weight (%) at 52 weeks. Key secondary endpoints included proportion of subjects with weight loss of ≥5% or ≥10% of baseline body weight at 52 weeks as well as change in body weight from baseline to 52 weeks. Supportive secondary safety endpoints also included gastrointestinal (GI) adverse events (i.e. nausea, vomiting, diarrhoea and constipation). During each site visit the individual subject was asked via open questions if they had experienced any medical problems since the last visit. All medical problems either observed by the site staff or the subject was reported as an adverse event and evaluated for severity and causality by the investigator. For this trial the subjects had site visits every 2 weeks for the first 20 weeks of the trial and afterwards site visits was performed every 4 weeks.
(§3) Subjects in all treatment arms including placebo received nutritional counselling and a calorie-reduced diet by a dietician or equivalent qualified delegate as well as physical activity counselling by a qualified person on a monthly basis beginning at the randomisation visit. The trial population consisted of a total of 957 subjects were randomised. A total of 777 subjects (81.2%) completed 52 weeks of treatment; 180 (18.8%) discontinued treatment prematurely with no obvious dose-dependent trend. Key inclusion criteria for this trial were: Male or female, age ≥18 years at the time of signing inform consent; body mass index (BMI)≥30.0 kg/m2 at the screening visit; and at least one unsuccessful weight loss attempt per investigator judgement. Key exclusion criteria for this trial were: A HbA1c≥6.5% at screening or diagnosed with type 1 or type 2 diabetes mellitus; Treatment with glucose lowering agent(s) within 90 days before screening; Screening calcitonin ≥50 ng/L (pg/mL); Personal or family history of medullary thyroid carcinoma or multiple endocrine neoplasia syndrome type 2; History of pancreatitis (acute or chronic); Obesity induced by endocrine disorders (e.g. Cushing Syndrome); Treatment with any medication within 90 days before screening that based on investigator's judgement may cause significant weight change; Previous surgical treatment for obesity (liposuction and/or abdominoplasty performed >1 year before screening is allowed); History of major depressive disorder within 2 years before randomisation; Any lifetime history of a suicidal attempt; and Female who is pregnant, breast-feeding or intends to become pregnant or is of childbearing potential and not using an adequate contraceptive method (adequate contraceptive measures as required by local regulation or practice).
Statistical analyses of effect endpoints: The primary analysis was based on a ‘jump-to-reference’ multiple imputation approach (J2R-MI). Week 52 data from subjects who discontinued trial product and returned for the visit at week 52 were included in the analysis. First, an imputation model using observed week 52 body weight (kg) measurements from the placebo arm only were estimated. Second, multiple copies (1000) of the full analysis set were generated by imputing missing values in all treatment arms from the imputation model. The primary endpoint was calculated in each complete data set and analysed using an analysis of covariance (ANCOVA) model. […]

[2] = 26-week clinical trial in adult patients with T2D: body weight change; conditions: on-treatment, estimated data
Protocol: (§4) A 26-week, randomized, double-blind clinical trial was carried out with adult patients with T2D, HbA1c 7.0-10.0% (53-86 mmol/mol), and body mass index 24.0-40.0 kg/m^2 who were treated with diet and exercise±metformin. […] The primary endpoint was change in HbA1c from baseline to week 26. Key exclusion criteria were a history of chronic or idiopathic acute pancreatitis and moderate-to-severe renal impairment (estimated glomerular filtration rate <60 mL/min/1.73 m^2).
Trial drug administration: Following a 2-week screening period, patients received trial medication for 26 weeks, followed by a 7-week follow-up period. […] The trial was double blinded within (but not between) each dose level of semaglutide, liraglutide and placebo, as treatment was volume matched.

[3] = 52-week clinical trial in obese subjects without diabetes mellitus: gastrointestinal adverse events; conditions: for Gastrointestinal adverse events, Observed data, % (percentage of subjects with at least one event) / Nausea, % (percentage of subjects experiencing at least one event) / Nausea, E (number of events) / Nausea, Ne (number of subjects experiencing at least one event) / Gastrointestinal adverse events, Observed data, Ne (number of subjects experiencing at least one event): on-treatment; for Nausea, % (percentage of subjects experiencing at least one event) / Nausea, E (number of events) / Nausea, Ne (number of subjects experiencing at least one event): observed data
Protocol: as §1, §2, §3

HbA1c = experiment: 26-week clinical trial in adult patients with T2D: change in HbA1c; conditions: baseline to week 26
Protocol: as §4
Trial drug administration: Following a 2-week screening period, patients received trial medication for 26 weeks, followed by a 7-week follow-up period.

[4] = Sema 0.05 mg once daily s.c., week 52
[5] = Sema 0.1 mg once daily s.c., week 52
[6] = Sema 0.2 mg once daily s.c., week 52
[7] = Sema 0.3 mg once daily s.c., week 52
[8] = Sema 0.4 mg once daily s.c., week 52
[9] = Sema 0.05 mg once daily s.c., N 103
[10] = Sema 0.1 mg once daily s.c., N 102
[11] = Sema 0.2 mg once daily s.c., N 103
[12] = Sema 0.3 mg once daily s.c., N 103
[13] = Sema 0.4 mg once daily s.c., N 102

Substance: N^6.26-{18-[N-(17-carboxyheptadecanoyl)-L-γ-glutamyl]-10-oxo-3,6,12,15-tetraoxa-9,18-diazaoctadecanoyl}-[8-(2-amino-2-propanoic acid),34-L-arginine]human glucagon-like peptide 1(7-37) [Sema]
- Corresponding Sema dose (dosage of semaglutide providing the same body weight reduction as 3.0 mg liraglutide) ([1]; Lira 3.0 mg, Emax model, Estimate [95% CI], week 52): 0.08 mg
- Change in body weight (%) from baseline to week 52, Change (%) Estimate ([1]; Sema 0.05 mg once daily s.c.): −5.99%
- Change in body weight, Treatment difference (%-points) vs. Lira 3.0 mg [1, 4]: 1.77 %-points
- Change in body weight, Treatment difference (%-points) vs. Placebo Pool [1, 4]: −3.70 %-points
- Change in body weight (%) from baseline at week 52, Model prediction (Estimate) % ([1]; Sema 0.05 mg): −6.19%
- Change in body weight (%) from baseline to week 52, Change (%) Estimate ([1]; Sema 0.1 mg once daily s.c.): −8.62%
- Change in body weight (%) from baseline to week 52, Subjects in-trial, Mean ([1]; Sema 0.1 mg once daily s.c.): −9.11%
- Change in body weight (%) from baseline to week 52, Subjects on-treatment, Mean ([1]; Sema 0.1 mg once daily s.c.): −9.76%
- Change in body weight, Treatment difference (%-points) vs. Lira 3.0 mg [1, 5]: −0.85 %-points
- Change in body weight, Treatment difference (%-points) vs. Placebo Pool [1, 5]: −6.32 %-points
- Change in body weight (%) from baseline at week 52, Model prediction (Estimate) % ([1]; Sema 0.1 mg): −8.47%
- Change in body weight (%) from baseline to week 52, Change (%) Estimate ([1]; Sema 0.2 mg once daily s.c.): −11.60%
- Change in body weight (%) from baseline to week 52, Subjects in-trial, Mean ([1]; Sema 0.2 mg once daily s.c.): −12.54%
- Change in body weight (%) from baseline to week 52, Subjects on-treatment, Mean ([1]; Sema 0.2 mg once daily s.c.): −13.68%
- Change in body weight, Treatment difference (%-points) vs. Lira 3.0 mg [1, 6]: −3.83 %-points
- Change in body weight, Treatment difference (%-points) vs. Placebo Pool [1, 6]: −9.31 %-points
- Change in body weight (%) from baseline at week 52, Model prediction (Estimate) % ([1]; Sema 0.2 mg): −11.00%
- Change in body weight (%) from baseline to week 52, Change (%) Estimate ([1]; Sema 0.3 mg once daily s.c.): −11.17%
- Change in body weight (%) from baseline to week 52, Subjects in-trial, Mean ([1]; Sema 0.3 mg once daily s.c.): −12.06%
- Change in body weight (%) from baseline to week 52, Subjects on-treatment, Mean ([1]; Sema 0.3 mg once daily s.c.): −12.97%
- Change in body weight, Treatment difference (%-points) vs. Lira 3.0 mg [1, 7]: −3.41 %-points
- Change in body weight, Treatment difference (%-points) vs. Placebo Pool [1, 7]: −8.88 %-points
- Change in body weight (%) from baseline at week 52, Model prediction (Estimate) % ([1]; Sema 0.3 mg): −12.37%
- Change in body weight (%) from baseline to week 52, Change (%) Estimate ([1]; Sema 0.4 mg once daily s.c.): −13.84%
- Change in body weight (%) from baseline to week 52, Subjects in-trial, Mean ([1]; Sema 0.4 mg once daily s.c.): −13.96%
- Change in body weight (%) from baseline to week 52, Subjects on-treatment, Mean ([1]; Sema 0.4 mg once daily s.c.): −16.17%
- Change in body weight, Treatment difference (%-points) vs. Lira 3.0 mg [1, 8]: −6.08 %-points
- Change in body weight, Treatment difference (%-points) vs. Placebo Pool [1, 8]: −11.55 %-points
- Change in body weight (%) from baseline at week 52, Model prediction (Estimate) % ([1]; Sema 0.4 mg): −13.24%
- Change in body weight (%) from baseline to week 52, Subjects in-trial, Mean ([1]; Sema 0.5 mg once daily s.c.): −6.33%
- Change in body weight (%) from baseline to week 52, Subjects on-treatment, Mean ([1]; Sema 0.5 mg once daily s.c.): −6.79%
- Body weight change, mean (kg), baseline to week 26 ([2]; Sema 0.05 mg once daily s.c.): -2.8 kg
- Body weight change, mean (kg), baseline to week 26 ([2]; Sema 0.1 mg once daily s.c.): -4.3 kg
- Body weight change, mean (kg), baseline to week 26 ([2]; Sema 0.2 mg once daily s.c.): -6.7 kg
- Body weight change, mean (kg), baseline to week 26 ([2]; Sema 0.3 mg once daily s.c.): -8.2 kg
- Corresponding Sema dose (dosage of semaglutide providing the same level of gastrointestinal adverse events as 3.0 mg liraglutide) ([3]; Lira 3.0 mg, Emax model, Estimate [95% CI]): 0.28 mg
- Gastrointestinal adverse events, Observed data, % (percentage of subjects with at least one event) ([3]; Sema 0.05 mg once daily s.c.): 62.1%
- Nausea, % (percentage of subjects experiencing at least one event) ([3]; Sema 0.05 mg once daily s.c.): 31.1%
- Nausea, E (number of events) ([3]; Sema 0.05 mg once daily s.c.): 41
- Nausea, Ne (number of subjects experiencing at least one event) [3, 9]: 32
- Gastrointestinal adverse events, Observed data, Ne (number of subjects experiencing at least one event) [3, 9]: 64
- Gastrointestinal adverse events, Observed data, % (percentage of subjects with at least one event) ([3]; Sema 0.1 mg once daily s.c.): 70.6%
- Nausea, % (percentage of subjects experiencing at least one event) ([3]; Sema 0.1 mg once daily s.c.): 41.2%
- Nausea, E (number of events) ([3]; Sema 0.1 mg once daily s.c.): 80
- Nausea, Ne (number of subjects experiencing at least one event) [3, 10]: 42
- Gastrointestinal adverse events, Observed data, Ne (number of subjects experiencing at least one event) [3, 10]: 72
- Gastrointestinal adverse events, Observed data, % (percentage of subjects with at least one event) ([3]; Sema 0.2 mg once daily s.c.): 69.9%
- Nausea, % (percentage of subjects experiencing at least one event) ([3]; Sema 0.2 mg once daily s.c.): 43.7%
- Nausea, E (number of events) ([3]; Sema 0.2 mg once daily s.c.): 74
- Nausea, Ne (number of subjects experiencing at least one event) [3, 11]: 45
- Gastrointestinal adverse events, Observed data, Ne (number of subjects experiencing at least one event) [3, 11]: 72
- Gastrointestinal adverse events, Observed data, % (percentage of subjects with at least one event) ([3]; Sema 0.3 mg once daily s.c.): 69.9%
- Nausea, % (percentage of subjects experiencing at least one event) ([3]; Sema 0.3 mg once daily s.c.): 41.7%
- Nausea, E (number of events) ([3]; Sema 0.3 mg once daily s.c.): 69
- Nausea, Ne (number of subjects experiencing at least one event) [3, 12]: 43
- Gastrointestinal adverse events, Observed data, Ne (number of subjects experiencing at least one event) [3, 12]: 72
- Gastrointestinal adverse events, Observed data, % (percentage of subjects with at least one event) ([3]; Sema 0.4 mg once daily s.c.): 82.4%
- Nausea, % (percentage of subjects experiencing at least one event) ([3]; Sema 0.4 mg once daily s.c.): 48.0%
- Nausea, E (number of events) ([3]; Sema 0.4 mg once daily s.c.): 94
- Nausea, Ne (number of subjects experiencing at least one event) [3, 13]: 49
- Gastrointestinal adverse events, Observed data, Ne (number of subjects experiencing at least one event) [3, 13]: 84
- Mean Change in HbA1c % (SD) (HbA1c; Sema 0.05 mg once daily s.c.): −0.97 (0.85) %
- Mean Change in HbA1c % (SD) (HbA1c; Sema 0.1 mg once daily s.c.): −1.30 (1.03) %
- Mean Change in HbA1c % (SD) (HbA1c; Sema 0.2 mg once daily s.c.): −1.65 (0.79) %
- Mean Change in HbA1c % (SD) (HbA1c; Sema 0.3 mg once daily s.c.): −1.96 (0.95) %
